Source: patent publication EP4810052A2, “HCRHR2 SELECTIVE POLYPEPTIDES” (Gubra A/S, priority 2023, dated 2026)
Where two headings read alike, the source gives them in different places. Starred links: 1 amine or outer side, 2 acyl side, 3 side chain; linkers in the order of their positions; H or OH if unused. Non-standard residues stand in square brackets, D forms with d. Residues, ends and D or L forms follow the SMILES beside them. Groups on a side chain read outwards from the residue. *: point of attachment. C20 diacid = O=C(O)CCCCCCCCCCCCCCCCCCC(=O)*; γGlu = O=C(O)[C@H](CCC(=O)[*:2])N[*:1]; NMeI = CC[C@H](C)[C@H](NC)C(=O)O; Nle = CCCC[C@H](N)C(=O)O; AEEA = NCCOCCOCC(=O)O; Aib = CC(C)(N)C(=O)O

Assays:
hCRHR2 = target: T1, hCRHR2 (Homo sapiens, UniProt Q13324); assay: HTRF cAMP assay, determination of hCRHR2 potency (peptide libraries 5 conc., purified peptides 11 conc.); type: cell-based
T1 sequence (Q13324 1-411): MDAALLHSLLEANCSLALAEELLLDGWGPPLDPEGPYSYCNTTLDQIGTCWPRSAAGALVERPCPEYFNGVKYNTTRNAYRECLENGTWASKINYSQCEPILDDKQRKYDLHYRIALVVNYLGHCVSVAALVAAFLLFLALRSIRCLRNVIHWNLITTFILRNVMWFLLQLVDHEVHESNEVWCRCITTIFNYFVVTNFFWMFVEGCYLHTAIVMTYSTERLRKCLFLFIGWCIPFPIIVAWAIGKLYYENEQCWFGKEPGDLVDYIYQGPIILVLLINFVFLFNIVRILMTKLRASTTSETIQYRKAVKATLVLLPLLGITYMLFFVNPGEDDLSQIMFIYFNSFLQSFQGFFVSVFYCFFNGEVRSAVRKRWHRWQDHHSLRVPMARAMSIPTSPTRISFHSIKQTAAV
Method in brief: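 Read-out was HTRF competitive cAMP detection (d2-labelled cAMP, cryptate-labelled antibody) in suspended, freshly thawed CHO-K1 cells stably carrying human CRHR2.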

hCRHR1 = target: T2, hCRHR1 (Homo sapiens, UniProt P34998); assay: HTRF cAMP assay, determination of hCRHR1 potency (peptide libraries 5 conc., purified peptides 11 conc.); type: cell-based
T2 sequence (P34998 24-415): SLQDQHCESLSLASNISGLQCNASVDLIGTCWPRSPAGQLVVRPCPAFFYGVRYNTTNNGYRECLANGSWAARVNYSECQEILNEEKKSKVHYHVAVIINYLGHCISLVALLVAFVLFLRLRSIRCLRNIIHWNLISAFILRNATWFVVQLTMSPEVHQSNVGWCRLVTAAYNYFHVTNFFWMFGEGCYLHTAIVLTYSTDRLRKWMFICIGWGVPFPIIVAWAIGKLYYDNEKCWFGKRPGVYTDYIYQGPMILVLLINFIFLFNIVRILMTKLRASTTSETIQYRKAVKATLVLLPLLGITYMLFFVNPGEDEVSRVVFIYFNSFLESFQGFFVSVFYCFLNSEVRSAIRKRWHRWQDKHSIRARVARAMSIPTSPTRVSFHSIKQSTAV
Method in brief: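 Cellular cAMP was read by time-resolved FRET between d2-labelled cAMP and cryptate anti-cAMP antibody. The cells were freshly thawed suspension CHO-K1 cells stably expressing human CRHR1.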

[1] = library peptides, matched molecular pairs L vs Nle in position X^38, read-out: Potency hCRHR2 pEC50 (converted)
[2] = library peptides, matched molecular pairs L vs Nle in position X^38, read-out: Potency hCRHR1 pEC50 (converted)

Compound | EC50 (hCRHR2; Table 4, library peptides having X^38 = Nle, read-out: hCRHR2 pEC50 (converted)) [nM] | EC50 (hCRHR1; Table 4, library peptides having X^38 = Nle, read-out: hCRHR1 pEC50 (converted)) [nM] | EC50 (hCRHR2; [1]) [nM] | EC50 (hCRHR1; [2]) [nM]
CCCC[C@H](NC(=O)[C@@H](NC(=O)[C@H](CCC(=O)O)NC(=O)C(C)(C)NC(=O)[C@H](CC(N)=O)NC(=O)[C@@H](NC(=O)[C@H](CCCCNC(=O)COCCOCCNC(=O)COCCOCCNC(=O)CC[C@H](NC(=O)CC[C@H](NC(=O)CCCCCCCCCCCCCCCCCCC(=O)O)C(=O)O)C(=O)O)NC(=O)[C@H](C)NC(=O)[C@H](CCC(N)=O)NC(=O)[C@H](CCC(=O)O)NC(=O)[C@H](CCCNC(=N)N)NC(=O)[C@H](C)NC(=O)[C@H](C)NC(=O)[C@H](CCCNC(=N)N)NC(=O)[C@H](C)NC(=O)[C@H](CCCNC(=N)N)NC(=O)[C@H](C)NC(=O)[C@H](CCC(N)=O)NC(=O)[C@@H](NC(=O)[C@H](CC(C)C)NC(=O)[C@H](CC(C)C)NC(=O)[C@@H](NC(=O)[C@H](CCC(N)=O)NC(=O)[C@H](CC(C)C)NC(=O)[C@H](CC(C)C)NC(=O)CNC(=O)[C@@H](NC(=O)[C@@H]1CCCN1C(=O)[C@@H](NC(=O)[C@H](CC(=O)O)NC(=O)[C@H](CC(C)C)NC(=O)[C@H](CO)NC(=O)[C@H](CC(C)C)NC(=O)[C@@H](NC(=O)[C@@H](NC)[C@@H](C)CC)C(C)C)C(C)C)[C@@H](C)CC)[C@@H](C)CC)[C@@H](C)O)[C@@H](C)O)[C@@H](C)CC)C(=O)N[C@@H](C)C(=O)N[C@@H](CCC(=O)O)C(=O)N[C@H](C(N)=O)C(C)C [compound 217] (H-[NMeI]VLSLDVPIGLLQILLTQARARAAREQAK([AEEA-AEEA-γGlu-γGlu-C20 diacid])TN[Aib]EI[Nle]AEV-NH2) | 0.0398 | 1000 | – | –
CCCC[C@H](NC(=O)[C@@H](NC(=O)[C@H](CCC(=O)O)NC(=O)[C@H](C)NC(=O)[C@H](CC(N)=O)NC(=O)[C@@H](NC(=O)[C@H](CCCCNC(=O)COCCOCCNC(=O)COCCOCCNC(=O)CC[C@H](NC(=O)CC[C@H](NC(=O)CCCCCCCCCCCCCCCCCCC(=O)O)C(=O)O)C(=O)O)NC(=O)[C@H](C)NC(=O)[C@H](CCC(=O)O)NC(=O)[C@H](CCC(=O)O)NC(=O)[C@H](CCCNC(=N)N)NC(=O)[C@H](CC(C)C)NC(=O)[C@H](C)NC(=O)[C@H](CCCNC(=N)N)NC(=O)[C@H](C)NC(=O)[C@H](CCCNC(=N)N)NC(=O)[C@H](C)NC(=O)[C@H](CCC(N)=O)NC(=O)[C@H](CCC(=O)O)NC(=O)[C@H](CC(C)C)NC(=O)[C@H](CC(C)C)NC(=O)[C@@H](NC(=O)[C@H](CCC(N)=O)NC(=O)[C@H](CC(C)C)NC(=O)[C@H](CC(C)C)NC(=O)CNC(=O)[C@@H](NC(=O)[C@@H]1CCCN1C(=O)[C@@H](NC(=O)[C@H](CC(=O)O)NC(=O)[C@H](CC(C)C)NC(=O)[C@H](CO)NC(=O)[C@H](CC(C)C)NC(=O)[C@@H](NC(=O)[C@@H](N)[C@@H](C)CC)C(C)C)C(C)C)[C@@H](C)CC)[C@@H](C)CC)[C@@H](C)O)[C@@H](C)CC)C(=O)N[C@@H](C)C(=O)N[C@@H](CCC(=O)O)C(=O)N[C@H](C(N)=O)C(C)C [compound 51] (H-IVLSLDVPIGLLQILLEQARARALREEAK([AEEA-AEEA-γGlu-γGlu-C20 diacid])TNAEI[Nle]AEV-NH2) | – | – | 0.794 | 126000

Further lines, results first:

EC50 (hCRHR2; Table 4, library peptides having X^38 = Nle, read-out: hCRHR2 pEC50 (converted)) [nM] | EC50 (hCRHR1; Table 4, library peptides having X^38 = Nle, read-out: hCRHR1 pEC50 (converted)) [nM] | EC50 (hCRHR2; [1]) [nM] | EC50 (hCRHR1; [2]) [nM] | Compound
– | – | 0.126 | 251 | CCCC[C@H](NC(=O)[C@@H](NC(=O)[C@H](CCC(=O)O)NC(=O)[C@H](C)NC(=O)[C@H](CC(N)=O)NC(=O)[C@@H](NC(=O)[C@H](CCCCNC(=O)COCCOCCNC(=O)COCCOCCNC(=O)CC[C@H](NC(=O)CC[C@H](NC(=O)CCCCCCCCCCCCCCCCCCC(=O)O)C(=O)O)C(=O)O)NC(=O)[C@H](C)NC(=O)[C@H](CCC(N)=O)NC(=O)[C@H](CCC(N)=O)NC(=O)[C@H](CCCNC(=N)N)NC(=O)[C@H](C)NC(=O)[C@H](C)NC(=O)[C@H](CCC(N)=O)NC(=O)[C@H](C)NC(=O)[C@H](CCCNC(=N)N)NC(=O)[C@H](C)NC(=O)[C@H](CCC(N)=O)NC(=O)[C@H](CCC(=O)O)NC(=O)[C@H](CC(C)C)NC(=O)[C@H](CC(C)C)NC(=O)[C@@H](NC(=O)[C@H](CCC(N)=O)NC(=O)[C@H](CC(C)C)NC(=O)[C@H](CC(C)C)NC(=O)CNC(=O)[C@@H](NC(=O)[C@@H]1CCCN1C(=O)[C@@H](NC(=O)[C@H](CC(=O)O)NC(=O)[C@H](CC(C)C)NC(=O)[C@H](CO)NC(=O)[C@H](CC(C)C)NC(=O)[C@@H](NC(=O)[C@@H](N)[C@@H](C)CC)C(C)C)C(C)C)[C@@H](C)CC)[C@@H](C)CC)[C@@H](C)O)[C@@H](C)CC)C(=O)N[C@@H](C)C(=O)N[C@@H](CCC(=O)O)C(=O)N[C@H](C(N)=O)C(C)C [compound 55] (H-IVLSLDVPIGLLQILLEQARAQAARQQAK([AEEA-AEEA-γGlu-γGlu-C20 diacid])TNAEI[Nle]AEV-NH2)
– | – | 0.398 | 20000 | CC[C@H](C)[C@H](N)C(=O)N[C@H](C(=O)N[C@@H](CC(C)C)C(=O)N[C@@H](CO)C(=O)N[C@@H](CC(C)C)C(=O)N[C@@H](CC(=O)O)C(=O)N[C@H](C(=O)N1CCC[C@H]1C(=O)N[C@H](C(=O)NCC(=O)N[C@@H](CC(C)C)C(=O)N[C@@H](CC(C)C)C(=O)N[C@@H](CCC(N)=O)C(=O)N[C@H](C(=O)N[C@@H](CC(C)C)C(=O)N[C@@H](CC(C)C)C(=O)N[C@@H](CCC(=O)O)C(=O)N[C@@H](CCC(N)=O)C(=O)N[C@@H](C)C(=O)N[C@@H](CCCNC(=N)N)C(=O)N[C@@H](C)C(=O)N[C@@H](CCC(N)=O)C(=O)N[C@@H](C)C(=O)N[C@@H](C)C(=O)N[C@@H](CCCNC(=N)N)C(=O)N[C@@H](CCC(N)=O)C(=O)N[C@@H](CCC(N)=O)C(=O)N[C@@H](C)C(=O)N[C@@H](CCCCNC(=O)COCCOCCNC(=O)COCCOCCNC(=O)CC[C@H](NC(=O)CC[C@H](NC(=O)CCCCCCCCCCCCCCCCCCC(=O)O)C(=O)O)C(=O)O)C(=O)N[C@H](C(=O)N[C@@H](CC(N)=O)C(=O)N[C@@H](C)C(=O)N[C@@H](CCC(=O)O)C(=O)N[C@H](C(=O)N[C@@H](CC(C)C)C(=O)N[C@@H](C)C(=O)N[C@@H](CCC(=O)O)C(=O)N[C@H](C(N)=O)C(C)C)[C@@H](C)CC)[C@@H](C)O)[C@@H](C)CC)[C@@H](C)CC)C(C)C)C(C)C [compound 54] (H-IVLSLDVPIGLLQILLEQARAQAARQQAK([AEEA-AEEA-γGlu-γGlu-C20 diacid])TNAEILAEV-NH2)
– | – | 0.398 | 1.58 | CCCC[C@H](NC(=O)[C@@H](NC(=O)[C@H](CCC(=O)O)NC(=O)[C@H](C)NC(=O)[C@H](CC(N)=O)NC(=O)[C@@H](NC(=O)[C@H](CCCCNC(=O)COCCOCCNC(=O)COCCOCCNC(=O)CC[C@H](NC(=O)CC[C@H](NC(=O)CCCCCCCCCCCCCCCCCCC(=O)O)C(=O)O)C(=O)O)NC(=O)[C@H](C)NC(=O)[C@H](CCC(N)=O)NC(=O)[C@H](CCC(=O)O)NC(=O)[C@H](CCCNC(=N)N)NC(=O)[C@H](C)NC(=O)[C@@H](NC(=O)[C@H](CCCNC(=N)N)NC(=O)[C@H](C)NC(=O)[C@H](CCCNC(=N)N)NC(=O)[C@H](C)NC(=O)[C@H](CCC(N)=O)NC(=O)[C@H](CCC(=O)O)NC(=O)[C@H](CC(C)C)NC(=O)[C@H](CC(C)C)NC(=O)[C@@H](NC(=O)[C@H](CCC(N)=O)NC(=O)[C@H](CC(C)C)NC(=O)[C@H](CC(C)C)NC(=O)CNC(=O)[C@@H](NC(=O)[C@@H]1CCCN1C(=O)[C@@H](NC(=O)[C@H](CC(=O)O)NC(=O)[C@H](CC(C)C)NC(=O)[C@H](CO)NC(=O)[C@H](CC(C)C)NC(=O)[C@@H](NC(=O)[C@@H](N)[C@@H](C)CC)C(C)C)C(C)C)[C@@H](C)CC)[C@@H](C)CC)C(C)C)[C@@H](C)O)[C@@H](C)CC)C(=O)N[C@@H](C)C(=O)N[C@@H](CCC(=O)O)C(=O)N[C@H](C(N)=O)C(C)C [compound 91] (H-IVLSLDVPIGLLQILLEQARARVAREQAK([AEEA-AEEA-γGlu-γGlu-C20 diacid])TNAEI[Nle]AEV-NH2)
